According to publication PMC11768344 (Pharmaceutics, 2024):
Values after ≈ are worked out from the molar mass of the structure shown. Where two headings read alike, the source gives them in different places.

What was measured:
[1] = saturated solubility (shake, 37 °C, 72 h, HPLC-UV); assay type: physicochemical; settings: for SPBS 7.4, the solubility in PBS 7.4 solution: PBS pH 7.4, 37 °C
Description: After centrifugation at 12,000 r/min for 10 min (TGL-16C centrifuge; Anting Scientific Instrument Company, Shanghai, China), the supernatant was withdrawn, and the solution was filtered through a syringe filter (pore size: 0.45 μm). […] The experiments were performed in triplicates.
Quantification of ROP-ST was performed using an HPLC−UV system consisting of an LC-10AT VP pump, an SPD-10A VP UV–vis detector, a CTO-10A column oven, a SIL-10AF autosampler, and an SCL-10A VP controller (Shimadzu Corporation; Kyoto, Japan). Data were collected and processed using LC-solution software. Isocratic elution was performed on a Diamonsil C18 column (150 mm × 4.6 mm I.D., 5 µm), and an EasyGuard C18 guard column (10 × 4.0 mm I.D., 5 µm) was mounted upstream from the analytical column (Dikma Technologies; Beijing, China). The column temperature was kept at 35 °C, and the UV absorbance wavelength was set at 215 nm. The mobile phase, comprising 88% (v/v) acetonitrile and 12% (v/v) water with 0.1% (v/v) trifluoroacetic acid, was used after filtering through a filter membrane (pore size: 0.45 μm) and degassing within an ultrasonic water bath (KQ-500VDE Ultrasonic Cleaner; Kunshan, China) for 40 min. The flow rate was maintained at 1.0 mL/min, and the injection volume was 20 µL. The calibration curve was linear in the range of 1–200 μM, and the correlation coefficient was >0.9998. […] The lower limit of quantification (LOQ) of ROP-ST was 1 μM (equal to 0.57 μg/mL). The validation of the HPLC method can be found in Supplemental Materials.
Briefly, the column temperature was kept at 35 °C, and the UV absorbance wavelength was set at 240 nm. The mobile phase comprised 50% (v/v) acetonitrile and 50% (v/v) phosphate buffer. The phosphate buffer was prepared by mixing 1.3 mL of sodium dihydrogen phosphate (1 mol/L) with 32.5 mL of disodium hydrogen phosphate (0.5 mol/L) and diluting to 1 L by water, and then the pH value was adjusted to 8.0. The flow rate was maintained at 1.0 mL/min, and the injection volume was 20 µL. The validation of the quantification method can be found in the Supplementary Materials.

[2] = plasma stability study of ROP-ST; assay type: in vitro ADME, rat; settings: 25 °C
Description: Healthy male Sprague–Dawley rats (SD rats, 200 ± 20 g) were provided by the Animal Experiment Center of Nantong University (protocol code of the ethical proof: S20240617-005). Blood samples were collected from the orbital cavity and centrifuged at 10,000 r/min for 10 min (TGL-16C centrifuge; Anting Scientific Instrument Company, Shanghai, China) to obtain blank plasma. The blank plasma was mixed with saline to obtain plasma solutions of 10%, 20%, and 40% (v/v) plasma, respectively. A half milliliter of saline, or 10%, 20%, and 40% plasma solution, was added to an EP tube, respectively, followed by adding 50 μL of methanolic solution of ROP-ST (concentration: 1100 μM) to each tube. The tubes were sealed and placed in a water bath shaker (37 °C). Three tubes were taken at each predetermined time point (0, 10, 20, 30, 40, 50, 60, 70, 80, and 90 min, respectively), rapidly frozen in liquid nitrogen to terminate the enzymatic reaction, and then stored at −80 °C. The samples were lyophilized to obtain dry residues. Before analysis, the residues were dissolved in methanol and subjected to ultrasonic treatment for 30 s. The resulting solution was filtered through a filter membrane (pore size: 0.45 μm), and the remaining levels of ROP-ST in subsequent filtrates were quantified by HPLC−UV. The hydrolysis rate constants (kobs) of the prodrug were calculated by plotting the natural logarithm of the remaining percentage against time. The corresponding half-life (t1/2) was then calculated (t1/2 = ln2/kobs). The experiment was conducted in triplicates.
(§1) The enzymatic stability of ROP-ST was examined by placing the methanolic solution of the prodrug into rat plasma solution and porcine liver esterase solution. […] The hydrolysis rate constants (kobs) of the prodrug were calculated by plotting the natural logarithm of the remaining percentage against time. The corresponding half-life (t1/2) was then calculated (t1/2 = ln2/kobs). Data at 25 °C were fitted approximately to a first-order kinetic equation for the prodrug loss (Figure 4). It should be noted that the actual hydrolytic kinetics of such lipophilic prodrugs by enzymes could be complicated in vitro and in vivo, which may not fully comply with the first-order kinetics. […] The rate of enzymatic cleavage increases as the concentration of rat plasma or the concentration of porcine liver esterase increases. In fact, the injection site of ROP-ST is muscle, which contains less esterase than the plasma. Therefore, it is logical to hypothesize that the bioconversion rate of ROP-ST in the muscle should be slower, which enables sustained release and long-acting efficacy.

[3] = liver esterase stability study of ROP-ST; assay type: in vitro ADME, porcine; settings: 0 U/mL, phosphate buffer (pH 8.0) without liver esterase, 25 °C
Description: (§2) Porcine liver esterase solutions were prepared by dissolving 4, 8, and 16 mg of porcine liver esterase powder (15 U/mg) into 12 mL of phosphate buffer (pH 8.0) to obtain porcine liver esterase solutions with the concentrations of 5, 10 and 20 U/mL, respectively. A half milliliter of blank buffer solution (pH 8 without enzyme) or porcine liver esterase solutions with the concentration of 5, 10, or 20 U/mL, respectively, was added to an EP tube, followed by adding 50 μL of methanolic solution of ROP-ST (concentration: 1100 μM) to each tube. The tubes were sealed and placed in a water bath shaker (25 °C) according to product instructions and a previous report. Three tubes were taken at each predetermined time point (0, 30, 45, 60, 75, 90, 105, and 120 min, respectively), rapidly frozen in liquid nitrogen to terminate the enzymatic reaction, and then stored at −80 °C. The subsequent treatments of the samples complied with the procedures described in “Section 2.5.1.”. The experiment was conducted in triplicates.
as §1

porcine liver esterase = test: liver esterase stability study of ROP-ST; assay type: in vitro ADME; settings: for half-life at 100 µM: pig, porcine liver esterase solution
Description: as §2, §1

[4] = in vitro drug release, inverted-cup method; assay type: physicochemical; settings: for solubility: PBS pH 7.4 with 0.25% SDS (release medium), pH 7.4, read-out: solubility in the release media
Description: In a preliminary study, the release of ROP-ST from its oil solution was investigated at 25 °C using the dialysis method. Briefly, 0.5 mL of ROP-ST oil solution was placed into a dialysis bag (MWCO: 14 kDa) and immersed into 150 mL of PBS solution (pH 7.4) with 0.5% sodium dodecyl sulfate (SDS). The dialysis media were stirred with a magnetic bar at 100 r/min. An aliquot (1 mL) was withdrawn at predetermined time intervals, and ROP-ST in the samples was quantified using HPLC−UV. […] Therefore, an “inverted-cup” method was utilized in this study to investigate the release profile of ROP-ST (Figure 3a). Briefly, a beaker containing 150 mL of PBS solution (pH 7.4, with 0.25% SDS) as the release medium was placed on a magnetic stirrer and stirred continuously at 100 r/min at room temperature (25 °C). A transparent glass cylinder (inner diameter: 1 cm) with two open endings was placed vertically in the beaker, with one ending immersed in the PBS solution and the other ending exposed to air. Then, 1 mL of ROP-ST oil solution was added to a glass cylinder, and the ending exposed in air was sealed with a plastic thin-film. In the meantime, the beaker was also sealed with a plastic thin-film. At predetermined time intervals, an aliquot (1 mL) of the release medium were withdrawn by a syringe, and 1 mL of fresh release medium was immediately replenished. The concentration of ROP-ST in the samples was determined by HPLC−UV, and the cumulative release of ROP-ST was calculated accordingly. The experiment was performed in triplicates.
For comparison, the release of an ROP-free base from its soybean oil solution and the release of aripiprazole lauroxil (APL) from its soybean oil solution were also investigated. […] To prepare the APL oil solution, 90.4 mg of APL was dissolved and mixed in 5 mL of soybean oil. The concentration of APL was 18.08 mg/mL (27.37 mM). […] Moreover, the marketed APL injectables are suspensions; therefore, the release of APL from its suspension was also studied. This was carried out by placing 5.89 mg of APL into 150 mL of PBS7.4 solution directly, which contained 0.25% SDS. The solution was also stirred and sampled in the same way as described above. APL was analyzed according to the previously reported method.

[5] = in vitro drug release, dialysis method (preliminary); assay type: physicochemical; settings: oil solution in dialysis bag MWCO 14 kDa, PBS pH 7.4 with 0.5% SDS, 25 °C, until 96 h
Description: In a preliminary study, the release of ROP-ST from its oil solution was investigated at 25 °C using the dialysis method. Briefly, 0.5 mL of ROP-ST oil solution was placed into a dialysis bag (MWCO: 14 kDa) and immersed into 150 mL of PBS solution (pH 7.4) with 0.5% sodium dodecyl sulfate (SDS). The dialysis media were stirred with a magnetic bar at 100 r/min. An aliquot (1 mL) was withdrawn at predetermined time intervals, and ROP-ST in the samples was quantified using HPLC−UV. […] Therefore, an “inverted-cup” method was utilized in this study to investigate the release profile of ROP-ST (Figure 3a). Briefly, a beaker containing 150 mL of PBS solution (pH 7.4, with 0.25% SDS) as the release medium was placed on a magnetic stirrer and stirred continuously at 100 r/min at room temperature (25 °C). A transparent glass cylinder (inner diameter: 1 cm) with two open endings was placed vertically in the beaker, with one ending immersed in the PBS solution and the other ending exposed to air. Then, 1 mL of ROP-ST oil solution was added to a glass cylinder, and the ending exposed in air was sealed with a plastic thin-film. In the meantime, the beaker was also sealed with a plastic thin-film. […] The concentration of ROP-ST in the samples was determined by HPLC−UV, and the cumulative release of ROP-ST was calculated accordingly. […]

[6] = no reference given; cited from earlier work
[7] = n-octanol/water partition coefficient (experimental Log P); assay type: physicochemical; settings: 37 °C, read-out: Log Pexp., experimental Log P
Description: Approximately 1 mg of ROP-ST and ROP-free base were dissolved in a bi-phase mixture of water-saturated n-octanol solution and n-octanol-saturated water (5 mL:5 mL), respectively. After equilibration in a water bath shaker (37 °C) for 24 h, the two phases were sampled separately and diluted with acetonitrile. […] The Log P value of each compound was calculated accordingly. The experiments were performed in triplicates.

[8] = 0% rat plasma (saline solution without rat plasma)
[9] = 5 U/mL porcine liver esterase, pH 8.0, 25 °C
[10] = 10 U/mL porcine liver esterase, pH 8.0, 25 °C
[11] = 20 U/mL porcine liver esterase, pH 8.0, 25 °C

With CCCCCCCCCCCCCCCCCC(=O)OCN(C(=O)C1CCCCN1CCC)c1c(C)cccc1C (stereo not drawn) [ROP-ST, ropivacaine stearoxil] the “SPBS 7.4, the solubility in PBS 7.4 solution” value [1] was “<LOQ”, the “Soil, the solubility in soybean oil” value ([1]; soybean oil, 37 °C) was “Miscible” and the half-life at 100 µM [2, 8] was 82.2 ± 26.2 h. For the same molecule, the “k × 10^3, first-order hydrolysis rate constant” value [2, 8] was 9.1 ± 3.2 h^−1, the “k × 10^3, first-order hydrolysis rate constant” value ([2]; 10% (v/v) rat plasma) was 436.6 ± 17.2 h^−1 and the “k × 10^3, first-order hydrolysis rate constant” value ([2]; 20% (v/v) rat plasma) was 665.0 ± 35.2 h^−1. The “k × 10^3, first-order hydrolysis rate constant” value ([2]; 40% (v/v) rat plasma) was 666.9 ± 30.7 h^−1, the half-life at 100 µM ([2]; male, Sprague-Dawley, 10% (v/v) rat plasma in saline, 10% (v/v) rat plasma) was 1.59 ± 0.06 h and the half-life at 100 µM ([2]; male, Sprague-Dawley, 20% (v/v) rat plasma in saline, 20% (v/v) rat plasma) was 1.04 ± 0.06 h. For the same molecule, the half-life at 100 µM ([2]; male, Sprague-Dawley, 40% (v/v) rat plasma in saline, 40% (v/v) rat plasma) was 1.04 ± 0.05 h, the half-life at 100 µM [3] was 88.4 ± 14.9 h and the “k × 10^3, first-order hydrolysis rate constant” value (porcine liver esterase; 0 U/mL, phosphate buffer (pH 8.0) without liver esterase, 25 °C) was 8.0 ±1.3 h^−1. The “k × 10^3, first-order hydrolysis rate constant” value (porcine liver esterase; [9]) was 107.9 ± 29.0 h^−1, the “k × 10^3, first-order hydrolysis rate constant” value (porcine liver esterase; [10]) was 159.6 ±1.3 h^−1 and the “k × 10^3, first-order hydrolysis rate constant” value (porcine liver esterase; [11]) was 226.1 ± 24.7 h^−1. It also gave a half-life at 100 µM (porcine liver esterase; [9]) of 6.78 ± 1.99 h, a half-life at 100 µM (porcine liver esterase; [10]) of 4.34 ± 0.03 h and a half-life at 100 µM (porcine liver esterase; [11]) of 3.09 ± 0.36 h. For the same molecule, the solubility [4] was roughly 1500 µM (≈ 856 µg/mL), the total cumulative release ([4]; from soybean oil solution 27.37 mM, PBS pH 7.4 with 0.25% SDS, 25 °C, 72 h) was 69.55% and the “duration of sustained release” value ([4]; from soybean oil solution, PBS pH 7.4 with 0.25% SDS, 25 °C) was “more than 72 h”. For the same molecule, the “ROP-ST detected in dialysis medium” value [5] was “no ROP-ST was detected”.
For CCCCCCCCCCCC(=O)OCN1C(=O)CCc2ccc(OCCCCN3CCN(c4cccc(Cl)c4Cl)CC3)cc21 [APL, aripiprazole lauroxil, reference compound], the solubility [4] was roughly 209 µM (≈ 138 µg/mL).
In the case of O=C1CCc2ccc(OCCCCN3CCN(c4cccc(Cl)c4Cl)CC3)cc2N1 [aripiprazole], the pKa [6] is listed as 7.46.
For CCCN1CCCC[C@H]1C(=O)Nc1c(C)cccc1C [ROP, Ropivacaine], the solubility at 72 h ([1]; PBS buffer pH 7.4, pH 7.4, PBS pH 7.4, 37 °C, read-out: SPBS 7.4, the solubility in PBS 7.4 solution) was roughly 1000 µM, the solubility at 72 h ([1]; PBS buffer pH 7.4, pH 7.4, PBS pH 7.4, 37 °C, read-out: solubility in PBS 7.4 solution) was roughly 270 µg/mL and the “SPBS 7.4, the solubility in PBS 7.4 solution” value [1] was 1040 ± 40 µM. The solubility at 72 h ([1]; soybean oil, 37 °C, read-out: Soil, the solubility in soybean oil) was 37000 ± 530 µM, the logP at 24 h [7] was 1.88 ± 0.17 and the “released in the first 12 h” value ([4]; from soybean oil solution 27.37 mM, PBS pH 7.4 with 0.25% SDS, 25 °C) was roughly 80%.
